Assay in all cases: DTP human tumour cell line panel, 48 h
The test system of assay [1] is COLO 205 colon.
Assay [2] concerns HCT-15 colon.
Assay [3] has as its system HL-60(TB) leukemia.
Assay [4] concerns HOP-62 NSCLC.
Assay [5] relates to IGROV1 ovarian.
The test system of assay [6] is M14 melanoma.
Assay [7] concerns SK-MEL-28 melanoma.
For assay [8], the system named is SK-OV-3 ovarian.
Assay [9] has as its system SN12C renal.
In assay [10] the test system is TK-10 renal.

“And” between values parts separate entries of the source, which are not always exact repeats. Equal entries are not always repeated.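 Protocol summary: plate cells (96-well), add compound at 5 concentrations, incubate 48 h, interpolate endpoints linearly. GI50 = concentration required for 50% inhibition of growth. TGI denotes the concentration required for complete inhibition of growth.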 Where only a bound is given, the exact number is not on record here.

One may read the TGI as the concentration at which net growth stops. Consider `CCc1cccc(C)c1NC(=O)CC1Sc2ccccc2NC1=O` (centres undefined), for which the TGI in assay [1] is over 100 µM; in assay [2] it was over 100 µM; in assay [3] it was 47.3 µM; in assay [4], 61.3 µM; in assay [5] it was over 100 µM; in [6] it was over 100 µM. The TGI in assay [7], in assay [8], in assay [9] and in assay [10] was over 100 µM throughout.

In general, GI50 refers to the concentration giving 50% growth inhibition. `CC1(C)C(=O)/C(=C\c2ccco2)C[C@]2(C)[C@H]3CC=C4[C@@H]5C[C@](C)(C(=O)O)CC[C@]5(C)CC[C@@]4(C)[C@]3(C)CC[C@@H]12`: the GI50 is 9.31 µM in assay [1]; 5.26 µM in [2]; 6780 nM in [3]; 10.1 µM in [4]; 8560 nM in assay [5]; 13.3 µM in assay [6]. Also, the GI50 was 15.1 µM in assay [7], 14.4 µM in [8], 7.64 µM in assay [9] and 13.1 µM in [10]. The TGI is 25.5 µM in assay [1]; 18.8 µM in [2]; 27.2 µM in assay [3]; 28.5 µM in [4]; 28.3 µM in assay [5]; 35.1 µM in assay [6]. The TGI in [7] turned out to be 31.1 µM; in assay [8], 29.3 µM; in assay [9] it was 26 µM; in assay [10] it was 36.7 µM.

As to `O=Nc1c2cccnc2n2nnc3ccc(Cl)cc3c12`, the GI50 in assay [1] was 1.32 µM; in assay [2], 0.94 µM; in assay [3], 272 nM; in assay [4], 4.64 µM; in assay [5], 1250 nM; in [6], 2.84 µM. Further, the GI50 in assay [7] is 2.39 µM; in [8], 5.37 µM; in [9], 2.06 µM; in [10], 1.66 µM. Besides, the TGI in assay [1] stood at 5.07 µM; in assay [2] it was 5.75 µM; in assay [3] it was 50 µM; in assay [4], 11.4 µM; in [5] it was 7.69 µM; in assay [6], 8.36 µM. Besides, the TGI in [7] was 5.36 µM; in [8], 20.4 µM; in assay [9] it was 11.7 µM; in assay [10], 7.6 µM.

For the compound `Nc1ncnc2c1ncn2C1OC(C(=O)O)C(O)C1O` (centres undefined), the TGI in [1], in [2], in assay [3], in [4], in assay [5] and in [6] was over 100 µM throughout. For the same compound, the TGI in assay [7], in [8], in assay [9] and in assay [10] was over 100 µM in each case.

For `Cc1ccc(C)c(NC(=O)/C(=N\NC(N)=S)C(C#N)c2ccccc2)c1` (centres undefined), the TGI in assay [1], in [2], in [3], in assay [4], in assay [5] and in [6] was over 100 µM throughout. Moreover, the TGI in assay [7], in assay [8], in assay [9] and in assay [10] was over 100 µM each time.

In the case of `O=C1/C(=C\c2cccs2)Oc2ccccc21`, the TGI in assay [1], in assay [2], in [3], in [4], in [5] and in assay [6] was over 100 µM in each case. Besides, the TGI in [7], in [8], in assay [9] and in assay [10] was over 100 µM throughout.

Take `Cc1c(C(=O)CC(=O)C(=O)NC2C3CC4CC(C3)CC2C4)[n+](=O)c2ccccc2n1[O-]` (centres undefined): the TGI in assay [1], in assay [2], in [3], in assay [4], in assay [5] and in assay [6] was over 100 µM throughout. Also, the TGI in assay [7], in assay [8], in [9] and in assay [10] was over 100 µM each time.

With `O=C1OCC2=Nc3cccc4cccc(c34)N12`, the TGI in assay [1], in [2], in assay [3], in [4], in assay [5] and in assay [6] was over 100 µM throughout. The TGI in [7], in assay [8], in assay [9] and in assay [10] was over 100 µM throughout.

`CCOC(=O)/C(C1=CC(=O)C(=O)c2ccccc21)=C(/C)NCc1ccccc1`: the GI50 is 2.01 µM in assay [1]; 1.75 µM in [2]; 453 nM in [3]; 1.56 µM in [4]; 1050 nM in assay [5]; 1.71 µM in assay [6]. The GI50 in assay [7] was 3.02 µM; in assay [8] it was 2.17 µM; in assay [9] it was 2.12 µM; in assay [10], 1.72 µM. The TGI in [1] was determined as 4.54 µM; in assay [2], 3.6 µM; in [3] it was 2.25 µM; in [4], 3.44 µM; in [6] it was 3.17 µM; in assay [7] it was 7.32 µM. The TGI in [8] came out at 4.88 µM; in [9] it was 5.09 µM; in assay [10], 3.51 µM.

`O=C(/C=C/c1ccc([N+](=O)[O-])o1)NNC(=O)c1cc2ccccc2cc1O`: the GI50 in assay [1] was 1.92 µM; in [2], 0.714 µM; in assay [3], 962 nM; in assay [4] it was 3.67 µM; in [5], 3070 nM; in [6], 0.738 µM. Further, the GI50 in assay [7] was 0.596 µM; in assay [8] it was 4.23 µM; in [9], 1.49 µM; in assay [10], 2.9 µM. The TGI in assay [1] is 6.54 µM; in [2], 2.91 µM; in [3], over 100 µM; in [4], over 100 µM; in [5] it was over 100 µM; in [6], 2.29 µM. In addition, the TGI is 2.21 µM in assay [7], over 100 µM in assay [8], over 100 µM in [9] and over 100 µM in [10].

For the compound `COc1cc(C(C#N)NNC(=O)c2ccccc2O)ccc1O` (centres undefined), the TGI in [1] is over 100 µM; in assay [2], over 100 µM; in assay [3], 19.4 µM; in assay [4], over 100 µM; in [5] it was over 100 µM; in assay [6], over 100 µM. For the same compound, the TGI in assay [7], in assay [8], in assay [9] and in assay [10] was over 100 µM throughout.

Regarding `O=C1Cc2c(-c3ccccc3)cc(-c3cccc(Cl)c3)nc2-c2ccccc2N1`, the TGI in [1] was over 58.3 µM; in assay [2], 17.6 µM; in assay [3], over 100 µM; in assay [4], 4.12 µM; in assay [5], 6.45 µM; in assay [6] it was over 63.9 µM. Moreover, the TGI in assay [7] was 25.8 µM; in assay [8], 9.49 µM; in assay [9] it was 16.2 µM; in assay [10] it was 3.62 µM.

`[Cl][Sn]([c]1ccccc1)[c]1ccccc1`: the GI50 is 7.45 µM in [1]; 4.48 µM in assay [2]; 2290 nM in assay [3]; 22.9 µM in assay [4]; 17700 nM in assay [5]; 8.24 µM in assay [6]. The GI50 was 1.58 µM in assay [7], 18.4 µM in assay [8], 9.18 µM in assay [9] and 3.17 µM in [10]. Moreover, the TGI in [1] came to 38.2 µM; in assay [2], 18 µM; in assay [3], 6.46 µM; in [4] it was 40.7 µM; in [5] it was 43.7 µM; in [6], 24.4 µM. For the same compound, the TGI was 3.62 µM in [7], 32.7 µM in assay [8], 22.9 µM in [9] and 8.57 µM in assay [10].

In the case of `COc1ccc2c(C3(O)CCNCC3)c[nH]c2c1`, the TGI in assay [1], in assay [2], in [3], in assay [4], in assay [5] and in assay [6] was over 100 µM throughout. Also, the TGI in assay [7], in assay [8], in assay [9] and in [10] was over 100 µM throughout.

As for `O=c1oc2c3ccc4ccccc4c3n(Cc3nc4ccccc4[nH]3)c2c2ccccc12`, the TGI in assay [1] is over 100 µM; in assay [2], over 100 µM; in assay [3], 20 µM; in assay [4] it was 75.3 µM; in [5], over 100 µM; in [6], over 100 µM. Further, the TGI in assay [7], in assay [8], in assay [9] and in assay [10] was over 100 µM throughout.

Regarding `CCCCS(=N)(=O)CC[C@H](N)C(=O)O` (some centres undefined), the GI50 in assay [1] is over 10000 µM; in assay [2], over 6960 µM; in assay [3], 32900 nM; in assay [4], over 7620 µM; in assay [5] it was 336000 nM; in assay [6], over 5620 µM. Besides, the GI50 in assay [7], in assay [8], in [9] and in assay [10] was over 10000 µM throughout. For the same compound, the TGI in [1] is over 10000 µM; in assay [2], 4940 µM and > 10000 µM; in assay [3], 1270 µM and 224 µM; in assay [4] it was over 10000 µM; in assay [5], 4980 µM and 6370 µM; in [6], over 5620 µM. Moreover, the TGI in assay [7], in [8], in [9] and in assay [10] was over 10000 µM throughout.

Turning to `CCCCCCCCCCCCC(SCCNC(=O)CCNC(=O)C(O)C(C)(C)COP(=O)(O)OP(=O)(O)OCC1OC(n2cnc3c(N)ncnc32)C(O)C1OP(=O)(O)O)C(=O)NCC(N)=O` (centres undefined), the TGI in assay [1], in [2], in [3], in assay [4], in [5] and in assay [6] was over 100 µM in each case. Moreover, the TGI is over 100 µM in assay [7], 98.2 µM in assay [8], over 100 µM in [9] and over 100 µM in assay [10].

In the case of `Cn1nnnc1[N-]Cc1ccccc1.[Au+].c1ccc([PH+](c2ccccc2)c2ccccc2)cc1`, the GI50 in [1] was 2.29 µM; in [2], 2.53 µM; in assay [3], 509 nM; in [4] it was 16 µM; in assay [5], 2430 nM; in [6] it was 1.67 µM. For the same compound, the GI50 was 2.53 µM in assay [7], 16.6 µM in assay [8], 5.01 µM in assay [9] and 2.46 µM in [10]. The TGI was 5.81 µM in assay [1]; 9.18 µM in [2]; 1.45 µM in assay [3]; 30 µM in [4]; 8.16 µM in [5]; 3.83 µM in assay [6]. Also, the TGI is 7.23 µM in assay [7], 30.3 µM in assay [8], 17 µM in assay [9] and 5.02 µM in assay [10].

Take `CC1=C(N2CC2)C(=O)c2nc3n(c2C1=O)CCC3O` (centres undefined): the TGI was 1.33 µM in [1]; 29.6 µM in assay [2]; 8.47 µM in assay [3]; 0.516 µM in [4]; 1.2 µM in [5]; 2.8 µM in assay [6]. Besides, the TGI came out at 0.872 µM in assay [7], 0.859 µM in assay [8], 2.71 µM in assay [9] and 0.285 µM in assay [10].

As for `C=C(CNCCO)[C@@H]1CC[C@]2(CO)CC[C@]3(C)[C@H](CC[C@@H]4[C@@]5(C)CCC(NCCc6ccc(O)cc6)C(C)(C)[C@@H]5CC[C@]43C)[C@@H]12` (some centres undefined), the GI50 in assay [1] was 0.194 µM; in [2], 1.36 µM; in [3], 2000 nM; in assay [4] it was 1.59 µM; in assay [5], 1640 nM; in assay [6], 0.187 µM. Besides, the GI50 in assay [7] was 1.6 µM; in assay [8], 1.7 µM; in [9], 1.69 µM; in assay [10], 1.66 µM. Besides, the TGI is 0.427 µM in [1]; 2.82 µM in assay [2]; 4.08 µM in assay [3]; 2.99 µM in assay [4]; 3.55 µM in assay [5]; 0.398 µM in [6]. Also, the TGI is 3.1 µM in [7], 3.23 µM in [8], 3.19 µM in [9] and 3.1 µM in assay [10].
